Data taken from patent publication EP3046573B1, “AMYLIN ANALOGUES” (Zealand Pharma A/S, priority 2013, dated 2015).
Numbered stars: 1 amine (or outer) side, 2 acyl side, 3 side chain; on linkers, the order of the positions; unused ones are H or OH. Bridge positions count the residues as written; N and C are the ends. Square brackets hold non-standard residues; d marks the D form. Peptide text beside a SMILES is read from it. * marks the point of attachment. C20 diacid = O=C(O)CCCCCCCCCCCCCCCCCCC(=O)*; γGlu = O=C(O)[C@H](CCC(=O)[*:2])N[*:1]; NMeI = CC[C@H](C)[C@H](NC)C(=O)O; Sar = CNCC(=O)O

Assays:
[1] = molecular target: T1, human calcitonin receptor (hCTR2) (Homo sapiens, UniProt P30988); assay: hCTR2 assay: induction of cAMP (AlphaScreen cAMP Assay kit) in COS7 cells expressing hCTR2; format: cell-based
T1 construct: expressed in transfected cells
T1 sequence (P30988 25-474): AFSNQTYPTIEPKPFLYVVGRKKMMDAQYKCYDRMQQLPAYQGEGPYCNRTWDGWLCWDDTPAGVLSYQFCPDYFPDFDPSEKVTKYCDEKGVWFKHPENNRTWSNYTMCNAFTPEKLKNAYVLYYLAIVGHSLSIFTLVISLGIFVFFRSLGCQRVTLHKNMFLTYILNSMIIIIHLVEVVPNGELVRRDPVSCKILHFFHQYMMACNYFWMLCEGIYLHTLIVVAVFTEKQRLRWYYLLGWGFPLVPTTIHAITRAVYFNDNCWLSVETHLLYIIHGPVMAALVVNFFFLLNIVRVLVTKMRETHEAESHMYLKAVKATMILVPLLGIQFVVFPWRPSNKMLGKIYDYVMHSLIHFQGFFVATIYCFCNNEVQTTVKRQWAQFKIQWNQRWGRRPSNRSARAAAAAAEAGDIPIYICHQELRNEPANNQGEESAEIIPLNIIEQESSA
In short: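 Functional agonism is measured as cAMP accumulation in a COS7 line stably transfected with hCTR2, lacking endogenous RAMPs. Peptides act for 15 min at 37° C with IBMX present, and curves are fitted with a 4-parameter logistic model.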

[2] = Assessment of chemical stability: normalized purity by RP-HPLC after incubation at 40 °C; format: physicochemical; details: normalized purity (T=0 set to 100), 0.2 mg/ml; for Chem. stability; 7 days, 40°C pH 4: pH 4, 7 days; for Chem. stability; 7 days, 40°C pH 7.5: pH 7.5, 7 days; for Chem. stability; 7 days, 40°C pH 9: pH 9, 7 days
Protocol: Samples of each test peptide were dissolved in MilliQ™ water, and the pH of the solution was adjusted to pH 4, pH 7.5 or pH 9, respectively, using either HCI or NaOH. The final peptide concentration was 0.2 mg/ml. Samples were placed in glass vials and incubated at 40 °C. The samples were analyzed by RP-HPLC on a C8 column with gradient elution using an ammonium formate/water eluent system, or on a C18 column with gradient elution using a trifluoroacetic acid/water eluent system. The area-percentage (area-%) of the main peak after incubation time T = t (relative to time T = 0) was determined by UV spectroscopy at 220 nm.
The purity was first determined as follows: Purity(area−%) = (area of main peak/total area of all peaks) × 100. [formula]
The purity was then normalized between time points by setting purity at time 0 (T=0) to 100 for each pH value for a given peptide, as follows: Normalised area−%at time t(T = t) = [area−%(T = t)/area−%(T = 0)] × 100. [formula]
The normalized purity values in Table 2 were determined after 7 days of incubation. Table 2. EC50, chemical stability and fibrillation data for compounds of the invention

[3] = Solubility assessment (turbidity absorbance at 325 nm); format: physicochemical; details: stock 2 mg/ml diluted 1:1, ambient temperature (typically 25°C), n=1; for Solubility, Acetate buffer pH 4: 100 mM acetate buffer pH 4.0; for Solubility, Acetate buffer pH 5: 100 mM acetate buffer pH 5.0; for Solubility, Histidine buffer pH 6: 100 mM histidine buffer pH 6.0; for Solubility, Histidine buffer pH 7: 100 mM histidine buffer pH 7.0; for Solubility, Phosphate buffer pH 6: 100 mM phosphate buffer pH 6.0; for Solubility, Phosphate buffer pH 7: 100 mM phosphate buffer pH 7.0; for Solubility, Phosphate buffer pH 7.5: 100 mM phosphate buffer pH7.5
In short: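 Peptide stock (2 mg/ml) in water acidified to pH 2.5 with HCl was diluted 1:1 into 100 mM acetate (pH 4.0, 5.0), histidine (pH 6.0, 7.0) or phosphate (pH 6.0, 7.0, 7.5) buffer. A280 and A325 were read at about 25°C, n=1. A325 ≤ 0.02 meant solubility ≥ 1 mg/ml.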

[4] = test system: male Zucker diabetic fatty (ZDF) rats; assay: Efficacy testing: glycemic control in Zucker diabetic fatty rats; format: in vivo
Protocol: (§1) Whole-blood glucose levels were determined on tail-vein blood samples by the Biosen (EKF Diagnostic, Germany) enzyme-based electrode method. Blood samples were analyzed for glycated hemoglobin (HbA1c) using a Cobas c111 analyzer (Roche Diagnostics, Mannheim, Germany). Plasma insulin levels were measured using a Meso Scale Discovery (MSD) system (Rockville, MD, USA). Liver fat content was determined by magnetic resonance (MR) scanning using an Echo systems MR scanner. Fat depots were measured by weighing of excised fat.
(§2) 84 male Zucker diabetic fatty (ZDF) rats (9-10 weeks of age) were used in this study. The animals were housed in groups of n = 2. Stratification of the animals was based on non-fasting blood glucose (primary), changes in non-fasting blood glucose measured from the arrival of the animals until one week before the initiation of the study (secondary) and body weight (tertiary). The animals were further divided into two "teams" with a pair-fed group (group 2) allocated to team 2. Animals from group 2 were pair-fed in order to compare between the contribution made by reduced food intake and by drug-induced effects on glycemic control. The amount of food eaten by the animals treated with Compound 82 (30 nmol/kg, team 1) each day was determined, and the same amount was given to a vehicle-treated pair-fed group of animals the following day.
Rats were treated for 4 weeks with Compound 82 (3, 30 and 100 nmol/kg, sc, every (ev.) 5th day), Compound 18 (30 nmol/kg sc, every 5th day), or the GLP-1 analogue liraglutide (40 nmol/kg sc, twice daily (bid)).
The effects of the compounds on glycemic control were investigated by measurement of non-fasting and fasting blood glucose levels and HbA1c levels.
Statistical analyses were performed using GraphPad™ Prism version 5. The measured parameters were compared using one- way ANOVA followed by Dunnett's multiple comparison test. Comparison between the pair-fed vehicle-treated group and the Compound 82 (30 nmol/kg) group was done using Student's two-tailed and unpaired t-test. Differences were considered statistically significant at p < 0.05.

[5] = test system: Zucker diabetic fatty (ZDF) rats; assay: Glycemic control in Zucker diabetic fatty rats; format: in vivo, male Zucker diabetic fatty (ZDF) rats; details: 40 nmol/kg sc twice daily (bid), P < 0.001
Protocol: as §1
as §2, with “Animals from group 2 were pair-fed in order to compare between the contribution made by reduced food intake and by drug-induced effects on glycemic control.” left out, “day. […]” for “day.”
Statistical analyses were performed using GraphPad™ Prism version 5. The measured parameters were compared using one- way ANOVA followed by Dunnett's multiple comparison test. […]

CC[C@H](C)[C@@H](C(=O)N[C@@H](CC(C)C)C(=O)N[C@@H](CO)C(=O)N[C@@H](CO)C(=O)N[C@H](C(=O)N[C@@H](CC(N)=O)C(=O)N[C@H](C(=O)NCC(=O)N[C@@H](CO)C(=O)N[C@@H](CC(N)=O)C(=O)N[C@H](C(=O)N1CCC[C@H]1C(N)=O)[C@@H](C)O)C(C)C)[C@@H](C)O)N(C)C(=O)[C@H](C)NC(=O)CN(C)C(=O)[C@H](Cc1ccccc1)NC(=O)[C@H](CC(N)=O)NC(=O)[C@H](CC(N)=O)NC(=O)[C@H](CO)NC(=O)[C@H](CO)NC(=O)[C@H](CCCNC(=N)N)NC(=O)[C@H](Cc1c[nH]cn1)NC(=O)[C@H](CC(C)C)NC(=O)[C@H](Cc1ccccc1)NC(=O)[C@H](CCC(=O)O)NC(=O)[C@H](C)NC(=O)[C@H](CC(C)C)NC(=O)[C@H](CCCNC(=N)N)NC(=O)[C@H](CCC(N)=O)NC(=O)[C@@H](NC(=O)[C@H](C)NC(=O)[C@@H]1CSSC[C@H](NC(=O)[C@H](Cc2c[nH]c3ccccc23)NC(=O)CC[C@H](NC(=O)CCCCCCCCCCCCCCCCCCC(=O)O)C(=O)O)C(=O)N[C@@H](CC(N)=O)C(=O)N[C@@H]([C@@H](C)O)C(=O)N[C@@H](C)C(=O)N[C@@H]([C@@H](C)O)C(=O)N1)[C@@H](C)O [Compound 125, [19CD]-isoGlu-WC()NTATC()ATQRLAEFLHRSSNNF-Gly(Me)-A-Ile(Me)-LSSTNVGSNTP-NH2] ({C20 diacid-γGlu}-WCNTATCATQRLAEFLHRSSNNF[Sar]A[NMeI]LSSTNVGSNTP-NH2; disulfide 2-7)
EC50 [1]: 0.061 nM
Chem. stability; 7 days, 40°C pH 4 [2]: 77 area-%
Chem. stability; 7 days, 40°C pH 7.5 [2]: 70 area-%
Chem. stability; 7 days, 40°C pH 9 [2]: 68 area-%
Solubility, Acetate buffer pH 4 [3]: SS (SS indicates solubility ≥ 1mg/ml)
Solubility, Acetate buffer pH 5 [3]: SS (SS indicates solubility ≥ 1mg/ml)
Solubility, Histidine buffer pH 6 [3]: SS (SS indicates solubility ≥ 1mg/ml)
Solubility, Histidine buffer pH 7 [3]: SS (SS indicates solubility ≥ 1mg/ml)
Solubility, Phosphate buffer pH 6 [3]: II (II indicates solubility ≤ 1 mg/ml)
Solubility, Phosphate buffer pH 7 [3]: SS (SS indicates solubility ≥ 1mg/ml)
Solubility, Phosphate buffer pH 7.5 [3]: SS (SS indicates solubility ≥ 1mg/ml)

liraglutide [reference compound]
terminal HbA1c levels ([4]; 40 nmol/kg sc twice daily (bid), 4 weeks, vehicle 8.7 ± 0.2): 5.8 ± 0.2%
blood glucose lowering effect ([4]; 40 nmol/kg sc twice daily, P < 0.001): significant

CC[C@H](C)[C@@H](C(=O)N[C@@H](CC(C)C)C(=O)N[C@@H](CO)C(=O)N[C@@H](CO)C(=O)N[C@H](C(=O)N[C@@H](CC(N)=O)C(=O)N[C@H](C(=O)NCC(=O)N[C@@H](CO)C(=O)N[C@@H](CC(N)=O)C(=O)N[C@H](C(=O)N1CCC[C@H]1C(N)=O)[C@@H](C)O)C(C)C)[C@@H](C)O)N(C)C(=O)[C@H](C)NC(=O)CN(C)C(=O)[C@H](Cc1ccccc1)NC(=O)[C@H](CC(N)=O)NC(=O)[C@H](CC(N)=O)NC(=O)[C@H](CO)NC(=O)[C@@H](CO)NC(=O)[C@H](Cc1c[nH]cn1)NC(=O)[C@H](Cc1c[nH]cn1)NC(=O)[C@H](CC(C)C)NC(=O)[C@H](Cc1ccccc1)NC(=O)[C@H](CCC(=O)O)NC(=O)[C@H](C)NC(=O)[C@H](CC(C)C)NC(=O)[C@H](CCCNC(=N)N)NC(=O)[C@H](CCC(N)=O)NC(=O)[C@@H](NC(=O)[C@H](C)NC(=O)[C@@H]1CSSC[C@H](NC(=O)[C@H](CCCNC(=N)N)NC(=O)CC[C@H](NC(=O)CCCCCCCCCCCCCCCCCCC(=O)O)C(=O)O)C(=O)N[C@@H](CC(N)=O)C(=O)N[C@@H]([C@@H](C)O)C(=O)N[C@@H](C)C(=O)N[C@@H]([C@@H](C)O)C(=O)N1)[C@@H](C)O [Compound 29, [19CD]-isoGlu-RC()NTATC()ATQRLAEFLHH-DSer-SNNF-Gly(Me)-A-Ile(Me)-LSSTNVGSNTP-NH2] ({C20 diacid-γGlu}-RCNTATCATQRLAEFLHH[dS]SNNF[Sar]A[NMeI]LSSTNVGSNTP-NH2; disulfide 2-7)
EC50 [1]: 0.42 nM
Chem. stability; 7 days, 40°C pH 4 [2]: 100 area-%
Chem. stability; 7 days, 40°C pH 7.5 [2]: 69 area-%
Chem. stability; 7 days, 40°C pH 9 [2]: 53 area-%
Solubility, Acetate buffer pH 4 [3]: SS (SS indicates solubility ≥ 1mg/ml)
Solubility, Acetate buffer pH 5 [3]: SS (SS indicates solubility ≥ 1mg/ml)
Solubility, Histidine buffer pH 6 [3]: SS (SS indicates solubility ≥ 1mg/ml)
Solubility, Histidine buffer pH 7 [3]: SS (SS indicates solubility ≥ 1mg/ml)
Solubility, Phosphate buffer pH 6 [3]: SS (SS indicates solubility ≥ 1mg/ml)
Solubility, Phosphate buffer pH 7 [3]: SS (SS indicates solubility ≥ 1mg/ml)
Solubility, Phosphate buffer pH 7.5 [3]: SS (SS indicates solubility ≥ 1mg/ml)

liraglutide
blood glucose levels (non-fasting and fasting) [5]: significant blood glucose lowering effect
